How the values were obtained:
[1] = system: U87-MG/GFP-Luc cells; experiment: Sensitivity to drug and synergy with TTFields; format: cell-based, human
[2] = system: pcGBM2/GFP-Luc cells
[3] = system: GBM39 cells (GBM39/Luc); experiment: Sensitivity to drug and synergy with TTFields; format: cell-based, human; conditions: for sensitivity of cells to various concentrations of drug: TTFields for 3 days vs no TTFields; for synergy of combination with TTFields: GBM39/Luc
[4] = system: MCF-7 human breast adenocarcinoma cells, wild type; experiment: Intracellular accumulation of mitoxantrone under alternating electric fields; format: cell-based; conditions: 150 kHz, 1.62 V/cm, 23 h, then mitoxantrone 2 μM for 1 h with field; vs no field
Method: (§1) The intracellular accumulation of mitoxantrone was then measured.

[5] = system: MCF-7 cells, mitoxantrone resistant; experiment: as above; format: cell-based, human; conditions: 150 kHz, 1.62 V/cm, 23 h, then mitoxantrone 2 μM for 1 h with field; vs no field
Method: as §1

[6] = system: human glioblastoma cells; experiment: Growth inhibition by TTFields in conjunction with compound; format: cell-based
Text: In this figure, 5-ALA=5-aminolevulinic acid; Ethidium D=ethidium bromide; and FITC=fluorescein isothiocyanate.

[7] = system: U87-MG/eGFP-fLuc cells; experiment: Annexin-V-APC binding (apoptosis positive control), fluorescence microscopy; format: cell-based, human; conditions: 21 μM, positive control for apoptosis, TTFields-unexposed
Method: To test if the imposition of TTFields affects cell membrane properties, and thus membrane permeability, the effect of TTFields on the behavior of fluorescently tagged reagents that bind to the cellular membrane was determined. Initially, the impact of TTFields on the binding of Annexin-V-APC to the membrane of U87-MG/eGFP-fLuc cells was measured. Annexin-V-APC binding is a signature of early apoptosis which is characterized by ruffling of the membrane.

[8] = molecular target: T1, purified firefly luciferase (Photinus pyralis, UniProt P08659); experiment: Activity of purified firefly luciferase exposed to TTFields; format: biochemical; conditions: 200 kHz TTFields, 60 minutes after initiation
T1 construct: purchased Sigma Aldrich Inc (St. Louis, Mo.) SRE0045-2 MG

[9] = system: MDA-MB-435 human melanoma cell line cells; experiment: 7-AAD accumulation by flow cytometry under alternating electric fields; format: cell-based; conditions: 150 kHz, 1.62 V/cm, 24 h
Method: After this 15 minute period, alternating electric field application was terminated and the cells were incubated at room temperature for an additional 15 minutes.
After this 24 hour period, the alternating electric fields were turned off for 15 minutes, after which the 7-AAD was added. After waiting an additional 15 minutes, the percentage of cells with increased accumulation of the fluorescent 7-AAD was determined using flow cytometry.

[10] = system: U87-MG cells; experiment: as above; format: cell-based, human; conditions: 300 kHz, 1.62 V/cm RMS, 24 h; 7-AAD introduced 15 minutes prior to cessation of the field (other timings after cessation: no significant increase)
Method: FIG. 7D depicts the results of an experiment to test how quickly the permeability drops back down after cessation of the alternating electric fields. More specifically, 7-Aminoactinomycin D (7-AAD) is a fluorescent chemical compound with a strong affinity for DNA. […] 7-AAD was introduced into samples at five different times: 15 minutes prior to the cessation of the alternating electric field; immediately after cessation of the alternating electric field; and 15, 30, and 60 minutes after cessation of the alternating electric field. In each case, the cells were incubated with 7-AAD for 30 minutes after introduction of the 7-AAD, followed by flow cytometry analysis of the percentage of cells with increased accumulation of the fluorescent 7-AAD for each of the different timings.
After this 15 minute period, alternating electric field application was terminated and the cells were incubated at room temperature for an additional 15 minutes, followed by flow cytometry analysis of the percentage of cells with increased accumulation of the fluorescent 7-AAD for each of the different frequencies.

[11] = system: U87-MG/eGFP-fLuc cells
Method: U87-MG/eGFP-fLuc cells were seeded on Thermanox glass coverslips, allowed to settle and grow, and then subjected to either TTFields or no TTFields.
To assess the reversibility of the effect of TTFields on cancer cells, U87-MG/eGFP-fLuc cells were subjected to three conditions: (1) No TTFields exposure, standard cell culture conditions (37° C., 95% 02, 5% CO2), (2) TTFields exposure for 24 h and (3) TTFields exposure for 24 h followed by no TTFields exposure for 24 h. The readouts of BLI, PpIX fluorescence (5-ALA product) and Dextran-FITC (4 kDa) fluorescence were acquired. All experimental conditions were done in triplicate.
Briefly, cells in culture were trypsinized via standard protocols and 10,000-50,000 single cells were suspended in 200 or 75 μL of DMEM/10% FBS/1×antibiotic-antimycotic and then were seeded onto the center of a 22 mm or 12 mm diameter glass Thermanox™ coverslips respectively (ThermoFisher Scientific, Waltham, Mass., USA). The cells were incubated overnight in a humidified 95% air/5% CO2 incubator set at 37° C. Once the cells became attached to the coverslip, 2 mL or 1 mL of DMEM/10% FBS/lx antibiotic-antimycotic was added per well of 6-well or 12-well plates, respectively. […]

[12] = system: U87-MG GBM on PCS-201 fibroblast co-cultures; experiment: 5-ALA uptake (PpIX fluorescence) in glioblastoma-fibroblast co-culture under TTFields; format: cell-based, human
[13] = system: U87-MG cells; experiment: 5-ALA uptake (PpIX fluorescence) under TTFields, single culture; format: cell-based, human
Method: Experiments were performed to determine the effects of TTFields on uptake of 5-ALA (as measured by PpIX accumulation and its resultant fluorescence) in glioblastoma cells. Because it is difficult to distinguish the margin between tumor and normal cells using the present 5-ALA bioassay, the measurement of PpIX fluorescence was used to address this issue. Investigations were run to determine whether permeation of 5-ALA through the cellular membrane and into the glioblastoma cells could be increased with TTFields exposure. U87-MG cells were exposed or unexposed to TTFields, each for durations of 6-24 h.
All monovariant statistical comparisons between no TTFields vs. TTFields samples done by Student's t-test for n=3 experiments per time point.

[14] = system: MDA-MB-435 cells, wild type; experiment: Intracellular accumulation of doxorubicin under alternating electric fields; format: cell-based, human; conditions: 150 kHz, 1.62 V/cm, 23 h, then doxorubicin 10 μM for 1 h with field; vs no field
[15] = system: MES-SA cells; experiment: Intracellular accumulation of doxorubicin under 150 kHz alternating electric fields; format: cell-based; conditions: 1.62 V/cm RMS, 24 h, doxorubicin 10 μM for last hour, vs untreated with field
[16] = system: MDA-MB-435 cells, doxorubicin resistant; experiment: Intracellular accumulation of doxorubicin under alternating electric fields; format: cell-based, human; conditions: 150 kHz, 1.62 V/cm, 23 h, then doxorubicin 10 μM for 1 h with field; vs no field
[17] = system: MDA-MB-235 cells; experiment: Sensitivity to drug and synergy with TTFields; format: cell-based
[18] = system: KR158B murine astrocytoma cell line; experiment: Bioluminescence imaging of Renilla luciferase-expressing astrocytoma cells under TTFields (coelenterazine substrate); format: cell-based; conditions: TTFields exposure vs no TTFields
Text: Renilla luciferase activity is not dependent upon ATP and magnesium (as opposed to firefly luciferase). Thus, it is believed that the induction of bioluminescence by TTFields was not due to alterations in endogenous pools of ATP.

[19] = TTFields for 3 days vs no TTFields

T1 sequence (P08659 whole entry): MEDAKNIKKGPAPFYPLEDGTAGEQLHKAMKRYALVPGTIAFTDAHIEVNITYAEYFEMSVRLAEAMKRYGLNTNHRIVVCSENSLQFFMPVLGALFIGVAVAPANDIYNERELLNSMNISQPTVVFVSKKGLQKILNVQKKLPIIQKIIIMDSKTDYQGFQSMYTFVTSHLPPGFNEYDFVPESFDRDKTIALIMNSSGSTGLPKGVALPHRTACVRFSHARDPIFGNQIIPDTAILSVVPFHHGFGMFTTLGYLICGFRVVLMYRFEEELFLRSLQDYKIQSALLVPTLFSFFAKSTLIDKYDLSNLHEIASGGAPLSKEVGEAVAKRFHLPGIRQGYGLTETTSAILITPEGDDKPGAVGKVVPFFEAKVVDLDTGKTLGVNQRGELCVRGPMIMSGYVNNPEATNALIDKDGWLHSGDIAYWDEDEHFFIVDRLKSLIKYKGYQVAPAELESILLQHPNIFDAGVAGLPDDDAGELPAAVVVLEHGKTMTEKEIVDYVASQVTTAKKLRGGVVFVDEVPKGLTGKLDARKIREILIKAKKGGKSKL

O=NN(CCCl)C(=O)NC1CCCCC1 [Lomustine]
sensitivity of cells to various concentrations of drug [1, 19]: improves the sensitivity | sensitivity of cells to various concentrations of drug [2, 19]: improves the sensitivity | sensitivity of cells to various concentrations of drug ([3]; GBM39 cells): improves the sensitivity

O=C1c2c(O)ccc(O)c2C(=O)c2c(NCCNCCO)ccc(NCCNCCO)c21 [mitoxantrone]
intracellular accumulation of mitoxantrone [4]: increased | intracellular accumulation of mitoxantrone [5]: increased

CC1=C(CO)C(=O)O[C@@H]([C@@H](C)[C@H]2CC[C@H]3[C@@H]4C[C@H]5O[C@]56[C@@H](O)C=CC(=O)[C@]6(C)[C@H]4CC[C@]23C)C1 [Withaferin A]
growth inhibition in conjunction with TTFields [6]: synergistically inhibited | synergy of combination with TTFields [1]: synergy was found | Annexin-V-APC binding to cells (early apoptosis) [7]: could be visualized | synergy of combination with TTFields [2]: synergy was found | synergy of combination with TTFields [3]: synergy was found

firefly luciferase: purified firefly luciferase enzyme (Sigma Aldrich SRE0045-2 MG)
loss in enzymatic activity [8]: > 1000 fold

Cc1c2oc3c(C)c(N)cc(C(=O)N[C@@H]4C(=O)N[C@H](C(C)C)C(=O)N5CCC[C@H]5C(=O)N(C)CC(=O)N(C)[C@@H](C(C)C)C(=O)O[C@@H]4C)c3nc-2c(C(=O)N[C@@H]2C(=O)N[C@H](C(C)C)C(=O)N3CCC[C@H]3C(=O)N(C)CC(=O)N(C)[C@@H](C(C)C)C(=O)O[C@@H]2C)c(N)c1=O [7-AAD, 7-Aminoactinomycin D]
percentage of cells with increased accumulation of 7-AAD ([9]; 7-AAD added for last 15 min while field continued): ~66% | percentage of cells with increased accumulation of 7-AAD ([9]; fields turned off for 15 minutes before 7-AAD was added): ~20% | accumulation of 7-AAD (percentage of cells with increased accumulation) [10]: significant increase

O=C(O)[C@H]1CSC(c2nc3ccc(O)cc3s2)=N1 [D-luciferin]
permeation of the luciferase substrate through the plasma membrane (bioluminescence) ([11]; TTFields exposure vs no TTFields): increased permeation | uptake (BLI flux), reversibility ([11]; no TTFields vs TTFields 24 h vs TTFields 24 h followed by no TTFields 24 h, FIG. 7A): reversibly increase uptake

NCC(=O)CCC(=O)O [5-ALA, 5-aminolevulinic acid]
ratio of PpIX fluorescence intensity in U87-MG cells over surrounding PCS-201 fibroblast cells ([12]; 24 h TTFields vs no TTFields, p=0.043): significantly increased | rate of PpIX fluorescence intensity increase ([12]; TTFields-exposed vs unexposed co-cultures, 2, 6, 24 h, p<0.001): significantly augmented | uptake of 5-ALA (PpIX fluorescence) ([13]; 6 h TTFields vs no TTFields, p=0.047): significantly increased uptake | uptake of 5-ALA (PpIX fluorescence) ([13]; 24 h TTFields vs no TTFields, p=0.011): increase was maintained | uptake (PpIX fluorescence), reversibility ([13]; no TTFields vs TTFields 24 h vs TTFields 24 h followed by no TTFields 24 h, FIG. 7B): reversibly increase uptake

CCc1c2c(nc3ccc(OC(=O)N4CCC(N5CCCCC5)CC4)cc13)-c1cc3c(c(=O)n1C2)COC(=O)[C@]3(O)CC [Irinotecan]
synergy of combination with TTFields [3]: synergy was found | sensitivity of cells to various concentrations of drug ([3]; GBM39/Luc cells): improves the sensitivity

COc1cccc2c1C(=O)c1c(O)c3c(c(O)c1C2=O)C[C@@](O)(C(=O)CO)C[C@@H]3O[C@H]1C[C@H](N)[C@H](O)[C@H](C)O1 [doxorubicin]
intracellular accumulation of doxorubicin [14]: increased | increase in intracellular accumulation of doxorubicin [15]: more than 2 × | intracellular accumulation of doxorubicin [16]: increased | synergy of combination with TTFields [17]: Evidence of synergy | sensitivity of cells to various concentrations of drug [17, 19]: improves the sensitivity

Oc1ccc(Cc2nc3c(Cc4ccccc4)nc(-c4ccc(O)cc4)cn3c2O)cc1 [coelenterazine]
permeation of the luciferase substrate through the plasma membrane (bioluminescence) [18]: increased permeation

Reference: patent US11103698B2, “Using alternating electric fields to increase cell membrane permeability” (The Board of Trustees of the Leland Stanford Junior …, priority 2018, dated 2021)
